The values that follow come from patent publication US11286274B2, “Nicotinamide riboside derivatives and their uses” (MitoPower LLC, priority 2017, dated 2022).

The structures appear in SMILES notation. Structures can show the parent of a compound that is named as a salt.

One experiment concerns Jurkat cells. Briefly: Total cellular NAD+ level after MNNG-induced depletion (NAD/NADH Glo Assay), Jurkat cells. Format: cell-based. The following applies: for % NAD+ Repletion: Jurkat, MNNG 100 μM, compound 1 mM; for increase of NAD+ level: Jurkat cells, 100 μM MNNG 30 min.
A further experiment relates to HEPG2 cells. Briefly: Total cellular NAD+ level after MNNG-induced depletion (NAD/NADH Glo Assay), HEPG2 cells. Particulars: HEPG2, MNNG 100 μM, compound 1 mM. Format: cell-based.

As to `COC(=O)CCC(=O)OC[C@H]1O[C@@H]([n+]2cccc(C(N)=O)c2)[C@H](O)[C@@H]1O` [MP-43, 3-Carboxamide-1-((2R,3R,4S,5R)-3,4-dihydroxy-5-(((4-methoxy-4-oxobutanoyl)oxy)methyl)tetrahydrofuran-2-yl)pyridin-1-ium trifluoroacetate], the “% NAD+ Repletion” value in the experiment with Jurkat cells came to 12.9%; in the experiment on HEPG2 cells, 31.1%.

For the molecule `NC(=O)c1ccc[n+]([C@@H]2O[C@H](CO)[C@@H](O)[C@H]2O)c1` [NR, nicotinamide riboside], in the experiment on Jurkat cells (then NR 100 μM without olaparib for 3.5 hr), the “increase of NAD+ level” value is 43%.

Consider `O=C(c1cc(Cc2n[nH]c(=O)c3ccccc23)ccc1F)N1CCN(C(=O)C2CC2)CC1` [olaparib, reference compound], for which the “increase of NAD+ level” value with Jurkat cells (then olaparib 5 nM without NR for 3.5 hr) was found to be 8%.

Turning to `NC(=O)c1ccc[n+]([C@@H]2O[C@H](COC(=O)CCC(=O)O)[C@@H](O)[C@H]2O)c1` [MP-42, 3-Carboxamide-1-((2R,3R,4S,5R)-5-(((3-carboxypropanoyl)oxy)methyl)-3,4-dihydroxytetrahydrofuran-2-yl)pyridin-1-ium trifluoroacetate], the “% NAD+ Repletion” value with Jurkat cells was determined as 8.2%; in the experiment with HEPG2 cells, 23.7%.
